The kinase profiling compilation of Christmann-Franck et al. (2016)

Tests used:
[1] = molecular target: MYLK4 (human) (UniProt Q86YV6); assay: KINOMEscan competition binding; conditions: compound 10.0 µM
[2] = molecular target: MKNK2 (human) (UniProt Q9HBH9); assay: KINOMEscan competition binding; conditions: compound 10.0 µM
[3] = molecular target: RIOK1 (human) (UniProt Q9BRS2); assay: KINOMEscan competition binding; conditions: compound 10.0 µM
[4] = molecular target: SRPK1 (human) (UniProt Q96SB4); assay: KINOMEscan competition binding; conditions: compound 10.0 µM
[5] = molecular target: TTK (human) (UniProt P33981); assay: KINOMEscan competition binding; conditions: for kinase still bound, per cent of control: compound 10.0 µM
TTK (human), sequence (P33981 whole entry, looked up): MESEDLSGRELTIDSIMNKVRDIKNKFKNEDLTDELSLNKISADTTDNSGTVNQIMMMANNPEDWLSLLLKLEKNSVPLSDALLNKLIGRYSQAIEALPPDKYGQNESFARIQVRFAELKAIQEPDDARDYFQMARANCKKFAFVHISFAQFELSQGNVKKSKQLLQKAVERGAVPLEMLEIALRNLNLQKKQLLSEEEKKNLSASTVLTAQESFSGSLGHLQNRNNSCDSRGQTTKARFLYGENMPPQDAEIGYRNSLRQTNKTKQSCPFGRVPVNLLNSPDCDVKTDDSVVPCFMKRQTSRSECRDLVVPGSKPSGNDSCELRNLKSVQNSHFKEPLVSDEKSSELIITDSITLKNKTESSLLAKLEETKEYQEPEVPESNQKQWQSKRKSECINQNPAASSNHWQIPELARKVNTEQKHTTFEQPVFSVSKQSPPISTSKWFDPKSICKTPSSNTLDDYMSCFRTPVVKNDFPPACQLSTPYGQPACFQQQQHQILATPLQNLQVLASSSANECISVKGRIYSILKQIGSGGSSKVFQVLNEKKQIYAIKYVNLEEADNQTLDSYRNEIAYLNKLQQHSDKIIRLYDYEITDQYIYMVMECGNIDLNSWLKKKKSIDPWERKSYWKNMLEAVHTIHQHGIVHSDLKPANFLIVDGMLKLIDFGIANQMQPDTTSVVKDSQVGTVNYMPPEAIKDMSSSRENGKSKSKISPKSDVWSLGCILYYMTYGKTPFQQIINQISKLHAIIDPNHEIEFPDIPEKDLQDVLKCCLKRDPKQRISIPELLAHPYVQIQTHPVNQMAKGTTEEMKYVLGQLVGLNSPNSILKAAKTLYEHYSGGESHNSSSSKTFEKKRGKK

[6] = molecular target: BMP2K (human) (UniProt Q9NSY1); assay: KINOMEscan competition binding; conditions: compound 10.0 µM
[7] = molecular target: RIOK3 (human) (UniProt O14730); assay: KINOMEscan competition binding; conditions: compound 10.0 µM
[8] = molecular target: CAMKK2 (human) (UniProt Q96RR4); assay: KINOMEscan competition binding; conditions: compound 10.0 µM
[9] = system: PIK3CA (human), P42336 [E545K]; assay: KINOMEscan competition binding; conditions: compound 10.0 µM
[10] = molecular target: MAP2K3 (human) (UniProt P46734); assay: KINOMEscan competition binding; conditions: compound 10.0 µM
[11] = molecular target: MAP2K4 (human) (UniProt P45985); assay: KINOMEscan competition binding; conditions: compound 10.0 µM
[12] = molecular target: CAMK2A (human) (UniProt Q9UQM7); assay: KINOMEscan competition binding; conditions: compound 10.0 µM
[13] = molecular target: CAMK2G (human) (UniProt Q13555); assay: KINOMEscan competition binding; conditions: compound 10.0 µM
CAMK2G (human), sequence (Q13555 whole entry, looked up): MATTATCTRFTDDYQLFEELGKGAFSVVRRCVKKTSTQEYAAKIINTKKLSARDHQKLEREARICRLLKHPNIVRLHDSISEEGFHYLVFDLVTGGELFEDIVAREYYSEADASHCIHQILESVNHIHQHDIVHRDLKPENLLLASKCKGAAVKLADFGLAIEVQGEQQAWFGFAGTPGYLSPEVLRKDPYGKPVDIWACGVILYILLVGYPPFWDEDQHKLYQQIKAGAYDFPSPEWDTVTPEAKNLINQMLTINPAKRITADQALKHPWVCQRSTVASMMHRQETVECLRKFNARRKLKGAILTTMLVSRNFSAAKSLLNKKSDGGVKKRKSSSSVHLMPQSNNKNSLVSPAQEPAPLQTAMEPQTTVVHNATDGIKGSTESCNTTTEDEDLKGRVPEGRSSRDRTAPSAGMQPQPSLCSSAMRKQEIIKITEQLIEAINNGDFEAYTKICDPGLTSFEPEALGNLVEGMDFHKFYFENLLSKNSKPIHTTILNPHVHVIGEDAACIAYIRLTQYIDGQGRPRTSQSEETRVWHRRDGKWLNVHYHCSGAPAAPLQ

[14] = molecular target: DCLK1 (human) (UniProt O15075); assay: KINOMEscan competition binding; conditions: compound 10.0 µM
DCLK1 (human), sequence (O15075 whole entry, looked up): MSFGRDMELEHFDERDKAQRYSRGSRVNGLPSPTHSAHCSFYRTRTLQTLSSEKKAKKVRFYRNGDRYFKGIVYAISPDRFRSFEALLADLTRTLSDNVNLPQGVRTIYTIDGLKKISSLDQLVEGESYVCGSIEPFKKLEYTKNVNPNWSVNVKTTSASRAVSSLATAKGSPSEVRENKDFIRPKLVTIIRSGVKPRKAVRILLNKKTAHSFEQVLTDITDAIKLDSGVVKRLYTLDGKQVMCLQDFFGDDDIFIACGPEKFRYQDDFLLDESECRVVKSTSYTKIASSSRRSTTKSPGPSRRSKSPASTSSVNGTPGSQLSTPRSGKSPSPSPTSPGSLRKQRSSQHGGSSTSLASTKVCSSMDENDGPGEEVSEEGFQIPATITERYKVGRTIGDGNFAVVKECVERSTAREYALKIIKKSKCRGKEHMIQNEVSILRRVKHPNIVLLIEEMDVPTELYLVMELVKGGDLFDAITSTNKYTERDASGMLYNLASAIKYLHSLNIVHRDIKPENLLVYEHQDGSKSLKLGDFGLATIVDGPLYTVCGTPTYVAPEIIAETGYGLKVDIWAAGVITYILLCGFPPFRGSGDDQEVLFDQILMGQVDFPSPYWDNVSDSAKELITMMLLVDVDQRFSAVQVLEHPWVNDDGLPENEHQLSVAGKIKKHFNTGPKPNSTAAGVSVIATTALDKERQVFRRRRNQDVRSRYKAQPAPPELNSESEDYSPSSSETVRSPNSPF

[15] = molecular target: PLK1 (human) (UniProt P53350); assay: KINOMEscan competition binding; conditions: compound 10.0 µM
PLK1 (human), sequence (P53350 whole entry, looked up): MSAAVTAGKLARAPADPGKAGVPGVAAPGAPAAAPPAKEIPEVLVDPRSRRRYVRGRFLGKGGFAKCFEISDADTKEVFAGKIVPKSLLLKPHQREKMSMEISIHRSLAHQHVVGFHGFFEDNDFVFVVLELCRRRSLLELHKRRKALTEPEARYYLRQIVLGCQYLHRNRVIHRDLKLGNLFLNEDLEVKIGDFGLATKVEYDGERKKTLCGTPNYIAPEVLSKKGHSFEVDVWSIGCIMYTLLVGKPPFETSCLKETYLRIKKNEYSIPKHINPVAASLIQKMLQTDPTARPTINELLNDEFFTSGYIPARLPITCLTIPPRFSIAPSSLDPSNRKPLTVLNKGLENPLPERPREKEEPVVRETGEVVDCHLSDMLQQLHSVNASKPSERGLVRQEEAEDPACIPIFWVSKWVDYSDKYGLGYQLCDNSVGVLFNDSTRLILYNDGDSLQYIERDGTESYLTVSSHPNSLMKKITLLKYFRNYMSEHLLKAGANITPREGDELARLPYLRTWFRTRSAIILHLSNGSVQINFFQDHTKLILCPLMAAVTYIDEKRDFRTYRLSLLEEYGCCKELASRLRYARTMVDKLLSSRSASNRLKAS

[16] = molecular target: MYLK (human) (UniProt Q15746); assay: KINOMEscan competition binding; conditions: compound 10.0 µM
[17] = molecular target: CAMK2D (human) (UniProt Q13557); assay: KINOMEscan competition binding; conditions: compound 10.0 µM
[18] = molecular target: STK33 (human) (UniProt Q9BYT3); assay: KINOMEscan competition binding; conditions: compound 10.0 µM
STK33 (human), sequence (Q9BYT3 whole entry, looked up): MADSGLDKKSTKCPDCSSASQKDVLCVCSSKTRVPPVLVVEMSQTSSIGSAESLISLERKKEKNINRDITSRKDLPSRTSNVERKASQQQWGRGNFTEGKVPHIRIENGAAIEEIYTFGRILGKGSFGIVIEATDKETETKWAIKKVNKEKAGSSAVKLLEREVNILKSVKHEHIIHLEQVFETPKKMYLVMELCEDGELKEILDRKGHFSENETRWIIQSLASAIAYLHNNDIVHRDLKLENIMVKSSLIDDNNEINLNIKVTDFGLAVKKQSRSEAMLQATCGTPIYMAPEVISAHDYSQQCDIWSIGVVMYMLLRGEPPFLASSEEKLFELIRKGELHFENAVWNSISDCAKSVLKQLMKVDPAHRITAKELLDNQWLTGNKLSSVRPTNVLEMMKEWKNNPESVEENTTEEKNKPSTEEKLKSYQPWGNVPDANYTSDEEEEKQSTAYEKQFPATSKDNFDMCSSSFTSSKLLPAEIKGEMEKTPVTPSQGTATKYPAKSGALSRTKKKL

[19] = molecular target: AAK1 (human) (UniProt Q2M2I8); assay: KINOMEscan competition binding; conditions: compound 10.0 µM
[20] = molecular target: TYK2 JH2 pseudokinase (human) (UniProt P29597); assay: KINOMEscan competition binding; conditions: compound 10.0 µM
[21] = molecular target: SRPK3 (human) (UniProt Q9UPE1); assay: KINOMEscan competition binding; conditions: compound 10.0 µM
[22] = molecular target: STK17A (human) (UniProt Q9UEE5); assay: KINOMEscan competition binding; conditions: compound 10.0 µM
[23] = molecular target: PIM3 (human) (UniProt Q86V86); assay: KINOMEscan competition binding; conditions: compound 10.0 µM
[24] = molecular target: CLK2 (human) (UniProt P49760); assay: KINOMEscan competition binding; conditions: compound 10.0 µM
[25] = molecular target: TTK (human) (UniProt P33981); assay: SelectScreen, TR FRET
[26] = molecular target: RPS6KA2 KD2 (human) (UniProt Q15349); assay: KINOMEscan competition binding; conditions: compound 10.0 µM
[27] = molecular target: PTK2 (human) (UniProt Q05397); assay: KINOMEscan competition binding; conditions: compound 10.0 µM
[28] = molecular target: DCLK2 (human) (UniProt Q8N568); assay: KINOMEscan competition binding; conditions: compound 10.0 µM
DCLK2 (human), sequence (Q8N568 whole entry, looked up): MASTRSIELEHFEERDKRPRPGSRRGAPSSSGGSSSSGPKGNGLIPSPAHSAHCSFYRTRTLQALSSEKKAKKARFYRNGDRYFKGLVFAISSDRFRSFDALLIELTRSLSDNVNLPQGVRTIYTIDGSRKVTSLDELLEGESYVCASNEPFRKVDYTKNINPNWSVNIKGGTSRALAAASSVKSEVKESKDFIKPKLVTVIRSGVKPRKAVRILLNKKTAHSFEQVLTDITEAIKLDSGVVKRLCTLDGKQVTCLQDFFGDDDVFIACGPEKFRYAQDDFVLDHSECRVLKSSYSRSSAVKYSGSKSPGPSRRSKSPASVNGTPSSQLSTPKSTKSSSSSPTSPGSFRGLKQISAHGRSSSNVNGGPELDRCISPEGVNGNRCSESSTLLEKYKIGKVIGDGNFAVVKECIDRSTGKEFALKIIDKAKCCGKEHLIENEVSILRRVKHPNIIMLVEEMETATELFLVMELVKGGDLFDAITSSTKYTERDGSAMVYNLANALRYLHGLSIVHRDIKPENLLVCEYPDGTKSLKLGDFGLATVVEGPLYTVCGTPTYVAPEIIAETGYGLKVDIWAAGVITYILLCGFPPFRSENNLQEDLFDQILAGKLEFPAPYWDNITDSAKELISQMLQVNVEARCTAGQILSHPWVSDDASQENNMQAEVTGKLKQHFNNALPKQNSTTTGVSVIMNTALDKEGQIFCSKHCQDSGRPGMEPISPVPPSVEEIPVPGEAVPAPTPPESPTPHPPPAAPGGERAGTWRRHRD

[29] = system: ABL1 (human), P00519 [F317I]; assay: KINOMEscan competition binding; conditions: compound 10.0 µM
[30] = molecular target: ULK2 (human) (UniProt Q8IYT8); assay: KINOMEscan competition binding; conditions: compound 10.0 µM
[31] = molecular target: ALK (human) (UniProt Q9UM73); assay: KINOMEscan competition binding; conditions: compound 10.0 µM
[32] = molecular target: TNK2 (human) (UniProt Q07912); assay: KINOMEscan competition binding; conditions: compound 10.0 µM
[33] = molecular target: PLK4 (human) (UniProt O00444); assay: KINOMEscan competition binding; conditions: compound 10.0 µM
PLK4 (human), sequence (O00444 whole entry, looked up): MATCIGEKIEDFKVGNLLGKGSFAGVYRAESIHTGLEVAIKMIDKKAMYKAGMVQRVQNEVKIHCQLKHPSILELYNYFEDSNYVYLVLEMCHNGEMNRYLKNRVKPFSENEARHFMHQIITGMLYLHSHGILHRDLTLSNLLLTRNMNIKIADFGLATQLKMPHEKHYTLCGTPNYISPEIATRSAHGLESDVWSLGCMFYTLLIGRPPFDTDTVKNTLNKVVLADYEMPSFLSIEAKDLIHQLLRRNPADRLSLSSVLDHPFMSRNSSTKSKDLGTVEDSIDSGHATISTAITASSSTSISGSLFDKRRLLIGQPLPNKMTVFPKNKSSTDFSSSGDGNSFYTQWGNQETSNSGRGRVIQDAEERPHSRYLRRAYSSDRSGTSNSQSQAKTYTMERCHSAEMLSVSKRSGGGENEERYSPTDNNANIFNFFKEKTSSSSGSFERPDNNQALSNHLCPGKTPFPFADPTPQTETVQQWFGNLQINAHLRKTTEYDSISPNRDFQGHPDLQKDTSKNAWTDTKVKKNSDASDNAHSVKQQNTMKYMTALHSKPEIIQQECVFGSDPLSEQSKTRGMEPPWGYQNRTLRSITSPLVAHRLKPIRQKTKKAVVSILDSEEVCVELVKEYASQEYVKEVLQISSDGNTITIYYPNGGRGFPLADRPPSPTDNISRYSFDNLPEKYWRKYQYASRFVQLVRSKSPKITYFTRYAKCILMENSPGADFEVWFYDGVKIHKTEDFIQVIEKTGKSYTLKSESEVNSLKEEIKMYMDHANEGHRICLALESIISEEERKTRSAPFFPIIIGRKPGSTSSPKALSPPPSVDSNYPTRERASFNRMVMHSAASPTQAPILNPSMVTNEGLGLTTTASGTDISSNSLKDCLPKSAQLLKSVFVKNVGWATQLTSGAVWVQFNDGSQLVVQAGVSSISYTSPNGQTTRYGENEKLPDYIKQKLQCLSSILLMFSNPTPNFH

[34] = molecular target: ROS1 (human) (UniProt P08922); assay: KINOMEscan competition binding; conditions: compound 10.0 µM
[35] = molecular target: MAPK7 (human) (UniProt Q13164); assay: KINOMEscan competition binding; conditions: compound 10.0 µM
[36] = molecular target: TNK1 (human) (UniProt Q13470); assay: KINOMEscan competition binding; conditions: compound 10.0 µM
[37] = molecular target: FRK (human) (UniProt P42685); assay: KINOMEscan competition binding; conditions: compound 10.0 µM
[38] = molecular target: PLK3 (human) (UniProt Q9H4B4); assay: KINOMEscan competition binding; conditions: compound 10.0 µM
[39] = molecular target: PTK2B (human) (UniProt Q14289); assay: KINOMEscan competition binding; conditions: compound 10.0 µM
[40] = molecular target: GAK (human) (UniProt O14976); assay: KINOMEscan competition binding; conditions: compound 10.0 µM
[41] = molecular target: PIM1 (human) (UniProt P11309); assay: SelectScreen, TR FRET
[42] = molecular target: PIM2 (human) (UniProt Q9P1W9); assay: SelectScreen, TR FRET
[43] = molecular target: FLT3 (human) (UniProt P36888); assay: KINOMEscan competition binding; conditions: compound 10.0 µM
[44] = molecular target: PDGFRB (human) (UniProt P09619); assay: KINOMEscan competition binding; conditions: compound 10.0 µM
[45] = system: FLT3 (human), P36888 [K663Q]; assay: KINOMEscan competition binding; conditions: compound 10.0 µM
[46] = system: KIT (human), P10721 [V559D]; assay: KINOMEscan competition binding; conditions: compound 10.0 µM
[47] = molecular target: KIT (human) (UniProt P10721); assay: KINOMEscan competition binding; conditions: compound 10.0 µM

NS(=O)(=O)c1ccc(-c2ccc(/C=C3\C(=O)Nc4cccc(Br)c43)o2)cc1
kinase still bound, per cent of control [1]: 1.8% | kinase still bound, per cent of control [2]: 34% | kinase still bound, per cent of control [3]: 15% | kinase still bound, per cent of control [4]: 16% | kinase still bound, per cent of control [5]: 28% | kinase still bound, per cent of control [6]: 34% | kinase still bound, per cent of control [7]: 17%

CS(=O)(=O)Nc1ccc(-c2ccc(C=C3C(=O)NC(=O)NC3=O)o2)cc1
kinase still bound, per cent of control [8]: 34% | kinase still bound, per cent of control [9]: 20%

O=C1NC(=O)C(=Cc2ccc(-c3ccc(Cl)cc3)o2)C(=O)N1
kinase still bound, per cent of control [10]: 15% | kinase still bound, per cent of control [11]: 14%

CCN1C(=O)CC(c2ccccc2)N(C2CCCC2)c2nc(Nc3ccc(C(=O)NC4CCN(C)CC4)cc3OC)ncc21 (stereo unspecified)
kinase still bound, per cent of control [12]: 20% | kinase still bound, per cent of control [2]: 33% | kinase still bound, per cent of control [13]: 26% | kinase still bound, per cent of control [14]: 23% | kinase still bound, per cent of control [15]: 0.55% | kinase still bound, per cent of control [16]: 26% | kinase still bound, per cent of control [17]: 30% | kinase still bound, per cent of control [18]: 20%

NS(=O)(=O)c1ccc(-c2ccc(/C=C3\C(=O)Nc4ccccc43)o2)cc1
kinase still bound, per cent of control [19]: 23% | kinase still bound, per cent of control [20]: 24% | kinase still bound, per cent of control [1]: 3.1% | kinase still bound, per cent of control [21]: 26% | kinase still bound, per cent of control [3]: 11% | kinase still bound, per cent of control [4]: 12% | kinase still bound, per cent of control [22]: 12% | kinase still bound, per cent of control [23]: 28% | kinase still bound, per cent of control [6]: 7.7% | kinase still bound, per cent of control [7]: 6.2% | kinase still bound, per cent of control [24]: 25%

CC[C@@H]1C(=O)N(C)c2cnc(Nc3ccc(N(C)CCO)cc3OC)nc2N1C1CCCC1
IC50 [25]: > 10 µM | Kd [5]: 4.7 µM

CCN1C(=O)CCN(C2CCCC2)c2nc(Nc3ccc(N4CCC(O)CC4)cc3OC(C)C)ncc21
IC50 [25]: 1.09 µM | kinase still bound, per cent of control [26]: 12% | Kd [5]: 0.253 µM | kinase still bound, per cent of control [5]: 1.9% | kinase still bound, per cent of control [15]: 4.1%

CC[C@@H]1C(=O)N(C)c2cnc(Nc3ccc(N(C)CCCO)cc3OC)nc2N1C1CCCC1
IC50 [25]: > 10 µM | Kd [5]: 3.1 µM

CC[C@@H]1C(=O)N(C)c2cnc(Nc3ccc(N4CCCC(O)C4)cc3OC)nc2N1C1CCCC1 (stereo partly specified)
IC50 [25]: > 10 µM | Kd [5]: 2.65 µM

COc1cc(N2CCN(C)CC2)ccc1Nc1ncc2c(n1)N(C(C)C)c1ccccc1C(=O)N2C
kinase still bound, per cent of control [27]: 18% | kinase still bound, per cent of control [5]: 8% | kinase still bound, per cent of control [28]: 1.2% | kinase still bound, per cent of control [14]: 1.2% | kinase still bound, per cent of control [29]: 22% | kinase still bound, per cent of control [15]: 25% | kinase still bound, per cent of control [30]: 25% | kinase still bound, per cent of control [31]: 14% | kinase still bound, per cent of control [32]: 27% | kinase still bound, per cent of control [33]: 0.15% | kinase still bound, per cent of control [34]: 9.2% | kinase still bound, per cent of control [35]: 0% | kinase still bound, per cent of control [36]: 3.8% | kinase still bound, per cent of control [37]: 31%

COc1cc(N(C)CCCO)ccc1Nc1ncc2c(n1)N(C1CCCC1)CCC(=O)N2C
IC50 [25]: 0.64 µM | kinase still bound, per cent of control [27]: 16% | Kd [5]: 0.0588 µM | kinase still bound, per cent of control [5]: 2.6% | kinase still bound, per cent of control [38]: 0% | kinase still bound, per cent of control [15]: 1.7% | kinase still bound, per cent of control [33]: 12% | kinase still bound, per cent of control [39]: 29% | kinase still bound, per cent of control [40]: 1.9% | kinase still bound, per cent of control [36]: 31% | kinase still bound, per cent of control [18]: 11%

O=C1NC(=S)S/C1=C\c1ccc(-c2cccc3cc[nH]c23)o1
IC50 [25]: 0.145 µM | IC50 [41]: 0.905 µM | IC50 [42]: 0.509 µM

CCN1C(=O)CCN(C2CCCC2)c2nc(Nc3ccc(N4CCC(O)CC4)cn3)ncc21
IC50 [25]: 3.45 µM | kinase still bound, per cent of control [43]: 31% | kinase still bound, per cent of control [26]: 32% | kinase still bound, per cent of control [44]: 11% | kinase still bound, per cent of control [45]: 27% | Kd [5]: 0.582 µM | kinase still bound, per cent of control [5]: 2% | kinase still bound, per cent of control [28]: 30% | kinase still bound, per cent of control [14]: 8.2% | kinase still bound, per cent of control [46]: 31% | kinase still bound, per cent of control [15]: 1.8% | kinase still bound, per cent of control [33]: 24% | kinase still bound, per cent of control [24]: 33% | kinase still bound, per cent of control [47]: 33% | kinase still bound, per cent of control [40]: 16% | kinase still bound, per cent of control [18]: 23%

CCOc1cc(N2CCC(O)CC2)ccc1Nc1ncc2c(n1)N(C1CCCC1)CCC(=O)N2
IC50 [25]: 7.45 µM | Kd [5]: 0.65 µM

CC[C@@H]1C(=O)N(C)c2cnc(Nc3ccc(N4CCC(O)CC4)cc3OC)nc2N1C1CCCC1
IC50 [25]: > 10 µM | Kd [5]: 1.41 µM

CCN1C(=O)CC(C(C)C)N(C2CCCC2)c2nc(Nc3ccc(C(=O)NC4CCN(C)CC4)cc3OC)ncc21 (stereo unspecified)
kinase still bound, per cent of control [12]: 9.3% | kinase still bound, per cent of control [13]: 16% | kinase still bound, per cent of control [28]: 1.6% | kinase still bound, per cent of control [14]: 0.9% | kinase still bound, per cent of control [39]: 34% | kinase still bound, per cent of control [17]: 23% | kinase still bound, per cent of control [18]: 31%
